According to article PMC10301432, “Antiplasmodial, Trypanocidal, and Genotoxicity In Vitro Assessment of New Hybrid α,α-Difluorophenylacetamide-statin Derivatives” (Pharmaceuticals, 2023):
Entries after “also recorded” stand apart in the source; their conditions may differ. Read-outs that look alike come from different tables or passages of the source.

Assays:
[1] = system: P. falciparum parasites (W2 clone) chloroquine-resistant; assay: Antiplasmodial activity, anti-HRPII assay; type: cell-based, Plasmodium falciparum; details: for SI: LC50 (HepG2)/EC50 (P. falciparum); for EC50: P. falciparum W2 clone, 24 h at 37 °C, read-out: EC50; for Antiplasmodial Activity: summarized outcome
Excerpt: P. falciparum W2 clone was maintained in continuous culture as previously described. […] Prior to testing, the ring-stage parasites were synchronized using sorbitol.
The test quantification was read at 450 nm on a spectrophotometer (SpectraMax340PC384, Molecular Devices Sunnyvale, CA, USA), and the drug activity was expressed as the half-maximal inhibitory concentration (EC50) compared to the drug-free controls using the curve-fitting software Origin 8.0 (OriginLab Corporation, Northampton, MA, USA).

in vitro [2] = type: cell-based; details: mouse
Description: Cardiac cell cultures were incubated for 24 h at 37 °C with different concentrations of the compounds (up to 200 µM) diluted in DMEM (without phenol red). Their morphology and spontaneous contractibility were evaluated by light microscopy and then the cellular viability was determined by the PrestoBlue® assay. For this colorimetric bioassay, PrestoBlue® (Invitrogen, Waltham, MA, USA) was added to each well (using a 10:1 medium/dye), the plate was further incubated for 24 h followed by optical density (OD) measurement performed at 570 and 600 nm, as recommended by the manufacturer.

[3] = system: Salmonella enterica serovar Typhimurium TA97; assay: Salmonella/microsome assay, TA97; details: for mutagenicity to TA97: at concentrations above 300 µM
Description: (§1) Salmonella enterica serovar Typhimurium (S. typhimurium) strains TA97, TA98, TA100, TA104 and TA102 from the authors’ stock were used as described in the mutagenicity assay.
(§2) To determine the cytotoxic effects, after 30 min pre-incubation, the assay mixtures were diluted in 0.9% NaCl (w/v) to obtain a suspension containing 2 × 10^2 cells/mL. […] The plates were then incubated at 37 °C for 24 h and the colonies counted. All the experiments were conducted in triplicate and were repeated at least twice. Statistical differences between the groups were analyzed by a two-way ANOVA (p < 0.05) and Tukey’s post hoc test.

[4] = system: Salmonella enterica serovar Typhimurium TA98; assay: Salmonella/microsome assay, TA98
Description: as §1, §2

CHO-K1 cells = type: cell-based, Chinese Hamster
Description: (§3) Fresh HepG2 and CHO-K1 cells were seeded at the density of 1 × 10^5 cells/mL into 24-well plates (1 mL/per well). The compounds 13 (a–d) were then added to the medium to final concentrations of 500, 1000 and 2000 µM and incubation continued for 3 h or 24 h. DMSO 10% was used as the negative control, and, BaP (80 µM) for HepG2 and MMC (5 µM) for CHO-K1 were the positive controls. After exposure to the compounds, the cells were incubated for more than 24 h under growth conditions before quantification of the micronuclei and cytotoxicity. The cytogenetic studies were carried out in triplicate as described previously (see [51]). In order to determine the mitotic index and the number of cells with micronuclei, the medium was replaced by a cold methanol-glacial acetic acid (3:1) fixative for 30 min, and the cells then rinsed with distilled water for 2 min and air dried. The fixed cells were stained with 4,6-diamidino-2-phenylindole (DAPI) ([…]) dissolved in McIlvaine buffer (0.1 M citric acid plus 0.2 M Na2HPO4, pH 7.0) for 60 min, washed with McIlvaine buffer for 5 min, briefly rinsed with distilled water and mounted in glycerol. To determine the mitotic index and the number of cells with micronuclei, 1000 cells per well (3000 cells per concentration) were analyzed under a fluorescence microscope. The results for micronuclei were presented as the percentage of cells containing micronuclei in the 3000 cells/concentration group analyzed. Cells that glowed brightly and had homogenous nuclei were considered as having normal phenotypic morphology. Apoptotic nuclei were identified by the condensed chromatin at the periphery of the nuclear membrane or by fragmented nuclear body morphology. Necrotic cells presented chromatin forms with irregularly shaped aggregates, a pyknotic nucleus (shrunken and darkly stained) and cell membrane disruption, with cellular debris spilled into the extracellular milieu. Once again, 3000 cells were counted and the percentage of viable cells was evaluated, discounting apoptotic and necrotic cells. Statistical differences between the groups were analyzed by two-way ANOVA (p < 0.01) and Tukey’s post hoc test.

[5] = system: CHO-K1 and HepG2 cell lineages; type: cell-based
Description: as §3, with “Necrotic cells presented chromatin forms with irregularly shaped aggregates, a pyknotic nucleus (shrunken and darkly stained) and cell membrane disruption, with cellular debris spilled into the extracellular milieu.” left out

T. cruzi = assay: Trypanocidal in vitro phenotypic screening, overall outcome; type: cell-based, Trypanosoma cruzi; details: summarized outcome
Description: Bloodstream trypomastigote forms (BT) of the Y strain were obtained from infected albino Swiss mice at the peak of parasitemia, isolated by differential centrifugation and resuspended in DMEM to a parasite concentration of 10^7 cells/mL in the presence of 10% of mouse blood. This suspension (100 µL) was added in the same volume of 13 (a–d) and 14 (a–d) previously prepared at twice the desired final concentrations.
Tissue culture-derived trypomastigotes (Tulahuen strain expressing the E. coli β-galactosidase gene) were maintained in L929 cell lines and collected from the supernatant after 96 h of parasite infection, following previously established protocols. Briefly, after 24 h of L929 platting (4 × 10^3 cells/well), the cultures were incubated with trypomastigotes (10:1 parasite/host cell ratio) for 2 h at 37 °C. Then, the cell cultures were rinsed to remove non-internalized parasites and then further incubated for 24 h at 37 °C. Then the infected cultures were followed using two sequential protocols. […] After this period, 50 µL chlorophenol red glycoside (500 µM) in 0.5% Nonidet P40 was added to each well and the plate was incubated for more than 18 h at 37 °C, after which the absorbance was measured at 570 nm. Then, the compounds were next evaluated using dose–response assays in which Tulahuen-infected-L929 cells were exposed to different non-toxic concentrations of each compound (0–50 µM) and then after 96 h of incubation the same procedure was conducted as above reported. Controls with untreated and Bz-treated cells are run in parallel. The results were expressed as the percent difference in the reduction between treated and untreated cells.

in vitro [6] = details: Salmonella enterica serovar Typhimurium, pH 7.4
[7] = system: S. typhimurium TA97, TA98, TA100, TA102 and TA104 strains; assay: Salmonella/microsome assay, overall outcome; details: all strains, −S9 and +S9; summarized outcome
Description: The mutagenicity reverse mutation test was carried out to investigate the potential of 13 (a–d) to induce genetic mutation in S. typhimurium TA97, TA98, TA100, TA102 and TA104 strains. The test was carried out according to the pre-incubation method, both in the absence and presence of a metabolic activation system (4% S9 mix, Aroclor-pre-induced, from Moltox Inc., Boone, NC, USA). DMSO 10% served as the negative control while known mutagens were used as the positive control substances. […] A dose-finding test was carried out with and without the metabolic activation system (S9 mix) for each tester strain.
For the assays without metabolic activation, 0.5 mL of 0.1 mol/L sodium-phosphate buffer (pH 7.4) was added, and for the assays in the presence of metabolic activation, 0.5 mL S9 mix was mixed with 0.1 mL culture medium (2 × 10^8 cells/mL) plus 0.1 mL of each compound solutions. The mixtures were incubated in a shaker at 37 °C (pre-incubation). After 30 min pre-incubation under light protection, the mixture was added to and mixed with 2 mL top agar containing 0.05 mmol/L L-histidine and D-biotin for the S. typhimurium strains. Each of these was then spread on a minimum glucose agar plate. After the top agar solidified, the plates were incubated at 37 °C for 60–72 h. Each tester strain was assayed in triplicate, and the number of revertant colonies was counted for each tester strain and treatment group [58].

[8] = Plasmodium falciparum, W2, 24 h

## CC(=O)Nc1ccc(C)cc1C(F)(F)C(=O)NCC[C@@H]1C[C@H](CC(=O)OC(C)(C)C)OC(C)(C)O1 [Compound 13b, tert-Butyl 2-((4R,6R)-6-(2-(2-(2-acetamido-5-methylphenyl)-2,2-difluoroacetamido)ethyl)-2,2-dimethyl-1,3-dioxan-4-yl)acetate]
[1]
  SI: >70
  EC50: 14.3 ± 0.2 µM
  Antiplasmodial Activity: Yes
[1]; [8]
  EC50: < 14 µM
In vitro [2]
  CC50 at 96 h: 114 ± 35.4 µM
[3]; +S9, 3 µM
  revertant His+ colonies TA97: 189 ± 43
[3]; +S9, 15 µM
  revertant His+ colonies TA97: 183 ± 43
[3]; +S9, 30 µM
  revertant His+ colonies TA97: 216 ± 47
[3]; +S9, 150 µM
  revertant His+ colonies TA97: 231 ± 5
[3]; +S9, 300 µM
  revertant His+ colonies TA97: 244 ± 23
[3]; +S9, 1500 µM
  revertant His+ colonies TA97: 288 ± 33
[3]; −S9, 3 µM
  revertant His+ colonies TA97: 69 ± 12
[3]; −S9, 15 µM
  revertant His+ colonies TA97: 76 ± 7
[3]; −S9, 30 µM
  revertant His+ colonies TA97: 75 ± 12
[3]; −S9, 150 µM
  revertant His+ colonies TA97: 74 ± 12
[3]; −S9, 300 µM
  revertant His+ colonies TA97: 84 ± 7
[3]; −S9, 1500 µM
  revertant His+ colonies TA97: 89 ± 27
[4]; +S9, 3 µM
  revertant His+ colonies TA98: 27 ± 5
[4]; +S9, 15 µM
  revertant His+ colonies TA98: 27 ± 1
[4]; +S9, 30 µM
  revertant His+ colonies TA98: 27 ± 5
[4]; +S9, 150 µM
  revertant His+ colonies TA98: 27 ± 5
[4]; +S9, 300 µM
  revertant His+ colonies TA98: 39 ± 1
[4]; +S9, 1500 µM
  revertant His+ colonies TA98: 45 ± 4
[4]; −S9, 3 µM
  revertant His+ colonies TA98: 18 ± 2
[4]; −S9, 15 µM
  revertant His+ colonies TA98: 19 ± 3
[4]; −S9, 30 µM
  revertant His+ colonies TA98: 21 ± 5
[4]; −S9, 150 µM
  revertant His+ colonies TA98: 22 ± 2
[4]; −S9, 300 µM
  revertant His+ colonies TA98: 22 ± 2
[4]; −S9, 1500 µM
  revertant His+ colonies TA98: 26 ± 4
CHO-K1 cells
  mitotic index: did not affect the mitotic index
[5]
  Mammalian Cell Genotoxicity: Yes
T. cruzi
  Trypanocidal Activity: No
In vitro [6]
  CC50: > 1500 µM
[7]
  Bacterial Mutagenicity: not mutagenic and no mutagenic potential and No

## CC(=O)Nc1ccc(Cl)cc1C(F)(F)C(=O)NCC[C@@H]1C[C@H](CC(=O)OC(C)(C)C)OC(C)(C)O1 [Compound 13c, tert-Butyl 2-((4R,6R)-6-(2-(2-(2-acetamido-5-chlorophenyl)-2,2-difluoroacetamido)ethyl)-2,2-dimethyl-1,3-dioxan-4-yl)acetate]
[1]
  SI: >85
  EC50: 11.8 ± 2 µM
  Antiplasmodial Activity: Yes
[1]; [8]
  EC50: < 14 µM
In vitro [2]
  CC50 at 96 h: 153 ± 25.2 µM
[3]; +S9, 3 µM
  revertant His+ colonies TA97: 219 ± 16
[3]; +S9, 15 µM
  revertant His+ colonies TA97: 245 ± 22
[3]; +S9, 30 µM
  revertant His+ colonies TA97: 247 ± 14
[3]; +S9, 150 µM
  revertant His+ colonies TA97: 249 ± 17
[3]; +S9, 300 µM
  revertant His+ colonies TA97: 259 ± 1
[3]; +S9, 1500 µM
  revertant His+ colonies TA97: 261 ± 13
[3]; −S9, 3 µM
  revertant His+ colonies TA97: 81 ± 6
[3]; −S9, 15 µM
  revertant His+ colonies TA97: 84 ± 8
[3]; −S9, 30 µM
  revertant His+ colonies TA97: 84 ± 6
[3]; −S9, 150 µM
  revertant His+ colonies TA97: 70 ± 6
[3]; −S9, 300 µM
  revertant His+ colonies TA97: 71 ± 11
[3]; −S9, 1500 µM
  revertant His+ colonies TA97: 62 ± 9
[4]; +S9, 3 µM
  revertant His+ colonies TA98: 34 ± 4
[4]; +S9, 15 µM
  revertant His+ colonies TA98: 35 ± 3
[4]; +S9, 30 µM
  revertant His+ colonies TA98: 39 ± 3
[4]; +S9, 150 µM
  revertant His+ colonies TA98: 37 ± 7
[4]; +S9, 300 µM
  revertant His+ colonies TA98: 47 ± 4
[4]; +S9, 1500 µM
  revertant His+ colonies TA98: 49 ± 5
[4]; −S9, 3 µM
  revertant His+ colonies TA98: 21 ± 2
[4]; −S9, 15 µM
  revertant His+ colonies TA98: 21 ± 5
[4]; −S9, 30 µM
  revertant His+ colonies TA98: 21 ± 3
[4]; −S9, 150 µM
  revertant His+ colonies TA98: 21 ± 2
[4]; −S9, 300 µM
  revertant His+ colonies TA98: 21 ± 1
[4]; −S9, 1500 µM
  revertant His+ colonies TA98: 23 ± 4
CHO-K1 cells
  mitotic index: did not affect the mitotic index
T. cruzi
  Trypanocidal Activity: Yes
[7]
  Bacterial Mutagenicity: not mutagenic and No

## CC(=O)Nc1ccc(Br)cc1C(F)(F)C(=O)NCC[C@@H]1C[C@H](CC(=O)OC(C)(C)C)OC(C)(C)O1 [Compound 13d, tert-Butyl 2-((4R,6R)-6-(2-(2-(2-acetamido-5-bromophenyl)-2,2-difluoroacetamido)ethyl)-2,2-dimethyl-1,3-dioxan-4-yl)acetate]
[1]
  SI: Inactive
  Antiplasmodial Activity: No
[1]; [8]
  EC50: > 89 µM
In vitro [2]
  CC50 at 96 h: 114 ± 5.29 µM
[3]; +S9, 3 µM
  revertant His+ colonies TA97: 134 ± 3
[3]; +S9, 15 µM
  revertant His+ colonies TA97: 135 ± 1
[3]; +S9, 30 µM
  revertant His+ colonies TA97: 201 ± 4
[3]; +S9, 150 µM
  revertant His+ colonies TA97: 203 ± 1
[3]; +S9, 300 µM
  revertant His+ colonies TA97: 288 ± 6
[3]; +S9, 1500 µM
  revertant His+ colonies TA97: 410 ± 10
[3]; +S9
  mutagenicity to TA97: significant mutagenicity; also recorded: mutagenic
[3]; −S9, 3 µM
  revertant His+ colonies TA97: 119 ± 8
[3]; −S9, 15 µM
  revertant His+ colonies TA97: 137 ± 1
[3]; −S9, 30 µM
  revertant His+ colonies TA97: 135 ± 4
[3]; −S9, 150 µM
  revertant His+ colonies TA97: 134 ± 4
[3]; −S9, 300 µM
  revertant His+ colonies TA97: 146 ± 6
[3]; −S9, 1500 µM
  revertant His+ colonies TA97: Cytotoxic
[3]; −S9
  mutagenicity to TA97: significant mutagenicity; also recorded: mutagenic
[4]; +S9, 3 µM
  revertant His+ colonies TA98: 28 ± 1
[4]; +S9, 15 µM
  revertant His+ colonies TA98: 28 ± 5
[4]; +S9, 30 µM
  revertant His+ colonies TA98: 31 ± 7
[4]; +S9, 150 µM
  revertant His+ colonies TA98: 34 ± 2
[4]; +S9, 300 µM
  revertant His+ colonies TA98: 34 ± 4
[4]; +S9, 1500 µM
  revertant His+ colonies TA98: 35 ± 3
[4]; −S9, 3 µM
  revertant His+ colonies TA98: 22 ± 7
[4]; −S9, 15 µM
  revertant His+ colonies TA98: 23 ± 5
[4]; −S9, 30 µM
  revertant His+ colonies TA98: 25 ± 1
[4]; −S9, 150 µM
  revertant His+ colonies TA98: 25 ± 1
[4]; −S9, 300 µM
  revertant His+ colonies TA98: 27 ± 5
[4]; −S9, 1500 µM
  revertant His+ colonies TA98: Cytotoxic
CHO-K1 cells
  micronuclei formation (genotoxicity): induced genotoxicity
[5]
  Mammalian Cell Genotoxicity: Yes
T. cruzi
  Trypanocidal Activity: Yes
In vitro [6]
  CC50: 14.7 ± 1.8 µM
[7]
  Bacterial Mutagenicity: Yes
